According to PubChem BioAssay AID1845207 (Molecular Pharmacology Branch, DTP, NCI, 2023):
pIC50: −log10 of the molar value.

Test system: NCI-H1876 tumor spheroid viability
Assay: Anticancer human tumor NCI-H1876 cell line growth inhibition;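 further: spheroids exposed to compounds for seven days before the viability read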;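 on viability, T/C: percent of DMSO vehicle control viability so 100% = vehicle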
Settings: spheroids with HUVEC and MSC; for pIC50: curve of first compound; for viability, T/C: stronger effect = lower value; active means viability on the fitted dose curve at most 10% of control; inactive means the rest
Summary of the method: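 Complex spheroids of malignant cells with endothelial cells and mesenchymal stem cells; agents alone or combined, from near clinical Cmax (or 10 microM if unknown) down in half-log steps, 0.25% DMSO final.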

Cc1cc(C)c(CNC(=O)c2cc(-c3ccc(CN4CCOCC4)cc3)cc3c2cnn3C2CCCC2)c(=O)[nH]1 + CC[C@@]1(O)C(=O)OCc2c1cc1n(c2=O)Cc2cc3c(CN(C)C)c(O)ccc3nc2-1
inactive: viability, T/C (second compound 0.003 µM, first compound 0.0316 µM) 78.6% | viability, T/C (second compound 0.003 µM, first compound 0.1 µM) 70% | viability, T/C (second compound 0.003 µM, first compound 0.316 µM) 56.6% | viability, T/C (second compound 0.003 µM, first compound 1 µM) 39% | viability, T/C (second compound 0.003 µM, first compound 3.16 µM) 27.7% | viability, T/C (second compound 0.003 µM, first compound 10 µM) 10.5% | viability, T/C (second compound 0.00949 µM, first compound 0.0316 µM) 40.9% | viability, T/C (second compound 0.00949 µM, first compound 0.1 µM) 39.6% | viability, T/C (second compound 0.00949 µM, first compound 0.316 µM) 35.1% | viability, T/C (second compound 0.00949 µM, first compound 1 µM) 26.2% | viability, T/C (second compound 0.00949 µM, first compound 3.16 µM) 22% | viability, T/C (second compound 0.00949 µM, first compound 10 µM) 10.5% | viability, T/C (second compound 0.03 µM, first compound 0.0316 µM) 15.6% | viability, T/C (second compound 0.03 µM, first compound 0.1 µM) 15.2% | viability, T/C (second compound 0.03 µM, first compound 0.316 µM) 17.6% | viability, T/C (second compound 0.03 µM, first compound 1 µM) 17.8% | viability, T/C (second compound 0.03 µM, first compound 3.16 µM) 16.5% | viability, T/C (second compound 0.03 µM, first compound 10 µM) 9.6% | viability, T/C (second compound 0.0949 µM, first compound 0.0316 µM) 8.57% | viability, T/C (second compound 0.0949 µM, first compound 0.1 µM) 9.17% | viability, T/C (second compound 0.0949 µM, first compound 0.316 µM) 10.2% | viability, T/C (second compound 0.0949 µM, first compound 1 µM) 12.2% | viability, T/C (second compound 0.0949 µM, first compound 3.16 µM) 12% | viability, T/C (second compound 0.0949 µM, first compound 10 µM) 11.9%
> 7.50: pIC50 (second compound 0.00949 µM) | pIC50 (second compound 0.03 µM) | pIC50 (second compound 0.0949 µM) | pIC50 (second compound 0.3 µM)
active: viability, T/C (second compound 0.3 µM, first compound 0.0316 µM) 3.79% | viability, T/C (second compound 0.3 µM, first compound 0.1 µM) 4.57% | viability, T/C (second compound 0.3 µM, first compound 0.316 µM) 4.59% | viability, T/C (second compound 0.3 µM, first compound 1 µM) 6.24% | viability, T/C (second compound 0.3 µM, first compound 3.16 µM) 7.93% | viability, T/C (second compound 0.3 µM, first compound 10 µM) 7.45%
6.29: pIC50 (second compound 0.003 µM)

CNCc1ccc(-c2cc(-c3nc(-c4ccc(S(=O)(=O)C(C)C)cc4)cnc3N)on2)cc1 + CC[C@@]1(O)C(=O)OCc2c1cc1n(c2=O)Cc2cc3c(CN(C)C)c(O)ccc3nc2-1
inactive: viability, T/C (second compound 0.003 µM, first compound 0.00949 µM) 68% | viability, T/C (second compound 0.003 µM, first compound 0.03 µM) 57.6% | viability, T/C (second compound 0.003 µM, first compound 0.0949 µM) 34% | viability, T/C (second compound 0.003 µM, first compound 0.3 µM) 46.9% | viability, T/C (second compound 0.003 µM, first compound 0.949 µM) 5.62% | viability, T/C (second compound 0.00949 µM, first compound 0.00949 µM) 46.3% | viability, T/C (second compound 0.00949 µM, first compound 0.03 µM) 34.2% | viability, T/C (second compound 0.00949 µM, first compound 0.0949 µM) 26.3% | viability, T/C (second compound 0.00949 µM, first compound 0.3 µM) 18% | viability, T/C (second compound 0.03 µM, first compound 0.00949 µM) 13.6% | viability, T/C (second compound 0.03 µM, first compound 0.03 µM) 14.5% | viability, T/C (second compound 0.03 µM, first compound 0.0949 µM) 16.9% | viability, T/C (second compound 0.03 µM, first compound 0.3 µM) 19% | viability, T/C (second compound 0.0949 µM, first compound 0.00949 µM) 8.73%
> 8.02: pIC50 (second compound 0.00949 µM) | pIC50 (second compound 0.03 µM) | pIC50 (second compound 0.0949 µM) | pIC50 (second compound 0.3 µM)
active: viability, T/C (second compound 0.003 µM, first compound 3 µM) 0.13% | viability, T/C (second compound 0.00949 µM, first compound 0.949 µM) 5.92% | viability, T/C (second compound 0.00949 µM, first compound 3 µM) 0.13% | viability, T/C (second compound 0.03 µM, first compound 0.949 µM) 5.1% | viability, T/C (second compound 0.03 µM, first compound 3 µM) 0.13% | viability, T/C (second compound 0.0949 µM, first compound 0.03 µM) 8.03% | viability, T/C (second compound 0.0949 µM, first compound 0.0949 µM) 10.2% | viability, T/C (second compound 0.0949 µM, first compound 0.3 µM) 8.96% | viability, T/C (second compound 0.0949 µM, first compound 0.949 µM) 3.31% | viability, T/C (second compound 0.0949 µM, first compound 3 µM) 0.13% | viability, T/C (second compound 0.3 µM, first compound 0.00949 µM) 3.51% | viability, T/C (second compound 0.3 µM, first compound 0.03 µM) 3.44% | viability, T/C (second compound 0.3 µM, first compound 0.0949 µM) 3.53% | viability, T/C (second compound 0.3 µM, first compound 0.3 µM) 3.41% | viability, T/C (second compound 0.3 µM, first compound 0.949 µM) 1.38% | viability, T/C (second compound 0.3 µM, first compound 3 µM) 0.19%
7.25: pIC50 (second compound 0.003 µM)
